According to ChEMBL document CHEMBL3507680, “University of Dundee, Gates Library screen for HepG2 cell viability”:

Test: Human HepG2 cell viability assay in 384 well format
Assay type: toxicity, cell-based
Set-up: dose 125 nL, time 70.5 hour; concentration not given beside the values
Details: HepG2 cells, read-out: Inhibition

Row | SMILES | cytotoxicity at 70.5 h [%]
1 | COc1ccc(C(=O)N2C[C@@H](NC(=O)N(C)C)[C@H](C(C)C)C2)c(OC)n1 | -11.2
2 | CN(CCC(C)(C)O)C(=O)C1CCC(=O)N(Cc2ccc(Cl)cc2)C1 (stereo not drawn) | -5.36
3 | CCCOCC1CCN(C(=O)c2cnc(-c3cccnc3)nc2O)C1 (stereo not drawn) | -6.25
4 | CCc1nc(C)c([C@H]2CN(C)C[C@@H]2C(=O)Nc2ccc3[nH]ncc3c2)[nH]1 | -5.87
5 | COCCN1CCC(CN(C)c2nc3c(s2)c(C)nn3C)C1 (stereo not drawn) | -3.25
6 | CC(=O)C1(c2ccccc2)CCN(C(=O)c2ccn3nnnc3c2)CC1 | -13.3
7 | CC(Cc1cn(CCc2n[nH]c(=O)[nH]2)nn1)c1ccccc1 (stereo not drawn) | -7.35
8 | CO[C@H]1CN(C(C)C)C[C@@H]1NC(=O)Nc1cccc(SC)c1 | 49.1
9 | N#Cc1cccc(N2CCC3(CCC(=O)N(CC4CCCO4)C3)CC2)n1 (stereo not drawn) | 0.613
10 | Nc1cnc(-c2cccc3c2CCNC3)cn1 | -15.3
11 | O=C(NC[C@H]1CCCO1)c1ccc(S(=O)(=O)N2C[C@@H]3C[C@H]2CN3)cc1 | -1.62
12 | CCN(CCn1c(=O)oc2ccccc21)CC1CCOCC1 | -2.32
13 | O=C(CCn1cnnn1)N1CCCC(CO)(CCc2ccccc2)C1 (stereo not drawn) | 18
14 | O=C1NCC2(CCCN(C(=O)Cn3nc4ccccc4n3)CC2)O1 (stereo not drawn) | 29.9
15 | CCc1cnc(N)nc1N1CCN(C(C)=O)CC1 | -15.8
16 | CN(Cc1ccccc1)c1ncccc1CNC1CCSCC1 | -2.31
17 | COCCC1(C(=O)O)CCCN(CCc2ccccc2)C1 (stereo not drawn) | -7.32
18 | CCN1CCC(CC(=O)N(C)CC(=O)c2ccc(O)cc2)CC1 | -8.66
19 | COCCN(CC1CCCN(C2Cc3ccccc3C2)C1)C(=O)CO (stereo not drawn) | -10
20 | CC(CN(C)Cc1cccc(-n2cccn2)c1)C(F)(F)F (stereo not drawn) | -1.16
21 | Cc1ccc(-c2ccnc(N(C)CC3CCCO3)n2)c(C)n1 (stereo not drawn) | -6.23
22 | CC(=O)Nc1ncc(S(=O)(=O)N2CCN(C3CCCCC3)CC2)s1 | -5.13
23 | CC(C)O[C@H]1CN(Cc2cnc3c(-c4ccccc4)cnn3c2)C[C@@H]1O | -5.99

Row | SMILES | cytotoxicity at 70.5 h [%]
24 | CC1CCN(CCCNS(=O)(=O)Cc2ccccc2F)CC1 | 1.01
25 | CCN(CC)c1ccc(-c2ccc(C)c(S(N)(=O)=O)c2)nn1 | -8.22
26 | CCn1nc(C)c(CN(CCOC)C(=O)c2ccccc2N(C)C)c1C | -2.9
27 | CCc1cccc(OCCCN(C)C(=O)CN2CCNC2=O)c1 | 0.78
28 | O=S(=O)(Cc1ccccc1Cl)NCCCN1CCCC1 | -5.39
29 | CCc1[nH]c2c(CNc3cnccn3)cc(F)cc2c1C | -2.66
30 | CCCc1cnc(C)nc1N1CCC(F)(F)CC1 | -9.65
31 | Cc1sc2nc(CCN)nc(N3CC(N4CCCCC4)C3)c2c1C | 26
32 | Cc1nc(NCc2ccc(C)o2)cc(C2CCNCC2)n1 | -23.6
33 | Nc1ccnc(C(=O)N2CCCC3(CCC(=O)N(C4CCCC4)C3)C2)c1 (stereo not drawn) | -7.4
34 | Cc1ccccc1N1CCN(c2cc(N(C)C)ncn2)C(C)C1 (stereo not drawn) | -9.42
35 | CCC(=O)Nc1cccc(OCC(=O)N(C)CCCC2CCCO2)c1 (stereo not drawn) | -3.54
36 | Cc1ccc(C)c(OC(C)C(=O)NCc2cccnc2)c1 (stereo not drawn) | -5.32
37 | CCC(C(=O)NCc1ccncc1)N(c1ccccc1)S(C)(=O)=O (stereo not drawn) | -3.1
38 | CCCNC(=O)c1cc(OC)c(OC)cc1N(C)S(C)(=O)=O | -8.53
39 | COc1ccc(OCC(C)NS(C)(=O)=O)cc1 (stereo not drawn) | -3.53
40 | O=C(N[C@@H]1CCN(Cc2cccc3nonc23)C[C@H]1O)c1cccnc1 | -13.7
41 | COC(=O)C1CCN(C(=O)c2cccc(NS(C)(=O)=O)c2C)CC1 | -7.56
42 | CN(C)Cc1cn(CC2CCCN(c3nccc4occc34)C2)nn1 (stereo not drawn) | -14.2
43 | O=c1[nH]c(COc2ccccc2Cl)nc2c1CCNC2 | -4.85
44 | c1cnc(N2CCN(CCn3ccnc3-c3c[nH]cn3)CC2)nc1 | -6.35
45 | Cc1ccc(-c2noc(CCC3CCN(C)CC3)n2)nn1 | -5.24
46 | CCC[C@H]1CN(c2nccc(NCC)n2)C[C@@H]1NS(=O)(=O)N(C)C | -7.09

Row | SMILES | cytotoxicity at 70.5 h [%]
47 | COc1nccnc1N1CCCC2(C1)C(=O)N(C)c1ccccc12 (stereo not drawn) | -12.3
48 | COCC(=O)N1Cc2c(-c3cccc(C)c3)nc(N)nc2C1C (stereo not drawn) | -9.82
49 | O=c1c2ccc(C(F)(F)F)cc2ncn1CCCN1CCCCC1CO (stereo not drawn) | 14.6
50 | Cc1ncc(CNC2CC(=O)N(CCc3cccc(Cl)c3)C2)n1C (stereo not drawn) | -9.98
51 | CNC(=O)c1cccnc1N1CCN(Cc2ccccc2)C(CCO)C1 (stereo not drawn) | -14.9
52 | Cc1nn2c(N3CCCC(C#N)C3)cc(-c3ccccc3)nc2c1C (stereo not drawn) | 1.82
53 | CNC(=O)c1sccc1S(=O)(=O)NC | -6.63
54 | Cc1nc(O)cc(CCNC(=O)CC[C@@H]2CCCN3CCCC[C@H]23)n1 | -9.84
55 | CC1CCN(C(=O)c2cccc(CN3CCOCC3)c2)CC1 | -5.87
56 | CN1CCN(C(=O)c2cccc(CN3CCOCC3)c2)CC1 | -2.6
57 | Nc1cc(N2CCC(c3cc(Cc4ccccc4)n[nH]3)CC2)ccn1 | 2.05
58 | COc1ccc(SC(C)C(=O)N2CCC(C(N)=O)CC2)cc1 (stereo not drawn) | -14.1
59 | CN(CCCO)C(=O)c1ccc2c(c1)nc(N1CC[C@H](O)C1)n2C | -7.06
60 | Cc1nnc(-c2cccc(N3CCC(NC4CCSC4)CC3)c2)s1 (stereo not drawn) | 4.71
61 | CN1C[C@@H](n2cnc(-c3ccccc3)c2-c2c[nH]cn2)C[C@H]1C(=O)O | -7.26
62 | c1coc(CN2CCn3c(nc4ccccc43)C2)c1 | 29.8
63 | Cc1cc(Cc2ccc(S(=O)(=O)N3CCOCC3)cc2)c(=O)[nH]n1 | 12.1
64 | CS(=O)(=O)N(Cc1ccon1)c1ccc(F)cc1 | -2.76
65 | CS(=O)(=O)N(Cc1ccon1)c1ccc2c(c1)OCO2 | -6.03
66 | Cc1cc(C(F)(F)F)cc(=O)n1CCn1cc(Cl)cn1 | -11.3
67 | Cc1cccc(N2CCC3(CCCN3Cc3c(C)nn(C)c3C)CC2)n1 | -3.1
68 | O=C1N(c2ccc(Br)cc2)Cc2n[nH]c(=O)n21 | 23.8
69 | Cc1ccc(-c2ccc(Cl)nn2)cc1S(=O)(=O)N1CCOCC1 | -5.38

Row | SMILES | cytotoxicity at 70.5 h [%]
70 | CC(C)N1CC(n2ccnc2-c2nccn2C)CC1=O (stereo not drawn) | -7.49
71 | COc1ccc(-n2ncc(C(C)NC3CCSCC3)c2C)cc1 (stereo not drawn) | -4.41
72 | CC(C)(C)OC(=O)NC1CCCN(Cc2cccs2)C1 (stereo not drawn) | 6.34
73 | CCn1ccnc1CN1C[C@@H](NC(=O)C2CC2)[C@H](c2ccc(C)cc2)C1 | 23.8
74 | Cc1nc2ccccc2n1Cc1cc(C(=O)N2C[C@@H](C)O[C@@H](C)C2)no1 | -8.42
75 | CCCC1(CO)CCCN(C(=O)CCCn2nc(C)cc2C)C1 (stereo not drawn) | -0.556
76 | CN(c1ccc(C(=O)NCCCN2CCCCC2)c(Cl)c1)S(C)(=O)=O | -2.79
77 | Fc1ccc(-c2noc3c2CN(CC2CC2)CC3)cc1F | -29.6
78 | CN(C)CCCNC(=O)c1ccc(N(C)S(C)(=O)=O)cc1Cl | -5.53
79 | CCC(NC(=O)C1CCN(S(C)(=O)=O)CC1)c1ccc(C)c(C)c1 (stereo not drawn) | -4.17
80 | CCCNCc1ccc(-c2cc(N)nc3[nH]ccc23)cc1 | -0.725
81 | CC(C)(C)OC(=O)NC1CCCN(Cc2cccc(O)c2)C1 (stereo not drawn) | -4.69
82 | CCOc1ccccc1C(C(=O)O)N(C)Cc1nc(C)c[nH]1 (stereo not drawn) | -6.68
83 | CCC(C)N(Cc1cc(C)n[nH]1)Cc1ccccc1Cl (stereo not drawn) | -10.8
84 | O=C1NC[C@@]2(C(=O)O)CN(Cc3cccc(Oc4ccccc4)c3)C[C@@H]12 | -4.3
85 | O=C(NCc1cc2n(n1)CCCNC2)C1(c2ccc(Cl)cc2)CCC1 | 1.64
86 | Cc1nnc(CCNC(=O)C2CC(=O)N(C(C)(C)C)C2)s1 (stereo not drawn) | 26.2
87 | O=C1COc2cc(C(=O)NS(=O)(=O)c3ccc(F)cc3)ccc2N1 | -17.6
88 | O=C1COc2ccc(C(=O)NS(=O)(=O)c3cc(F)ccc3F)cc2N1 | -8.54
89 | COc1ccc(OCCN2CCN(Cc3nccn3C)CC2)cc1 | 12.8
90 | CCN(CC1CCOC1)C(=O)c1cc(F)ccc1N1CCN(C)CC1 (stereo not drawn) | 46
91 | CCOCC1CCCN(C(=O)NCc2ccc(-c3ccn[nH]3)cc2)C1 (stereo not drawn) | 12.5
92 | CSC(C)C(=O)N1CCCN(c2ncccc2C#N)CC1 (stereo not drawn) | 12.4

Row | SMILES | cytotoxicity at 70.5 h [%]
93 | COc1ccc(C(=O)N2CCCC2c2cnn(C)c2)cn1 (stereo not drawn) | 9.21
94 | CCN(CC1CCOC1)C(=O)c1ccc(N2CCOCC2)c(F)c1 (stereo not drawn) | -6.24
95 | Cc1occc1C(=O)N1CCCN(Cc2nccn2C)CC1 | -8.79
96 | N#Cc1ccccc1N1CCCN(C(=O)NCc2cc[nH]n2)CC1 | -6.85
97 | CCN(CC1CCOC1)C(=O)c1ccccc1S(C)(=O)=O (stereo not drawn) | -4.17
98 | CCOc1ccccc1N1CCN(C(=O)NCc2cc[nH]n2)CC1 | 18.3
99 | CC(C)(C)c1ncc(C(=O)NCCNC(=O)c2ccco2)s1 | -6.05
100 | CC(C)(C)c1ncc(C(=O)NCCNC(=O)c2ccc(O)cc2)s1 | -7.09
101 | CC(C)(C)c1ncc(C(=O)NCCNS(C)(=O)=O)s1 | -7.98
102 | NC(=O)CC1CCN(C(=O)NCc2ccc(-c3ccn[nH]3)cc2)CC1 | -11.3
103 | CN(CCCOc1ccccc1)Cc1nc2c(cnn2C)c(=O)[nH]1 | -1.06
104 | COC(=O)c1ccc(N2CCN(CCS(C)(=O)=O)C(C)C2)cc1 (stereo not drawn) | -3.48
105 | CCN1CCN(C(=O)NCc2cc[nH]n2)CC1 | -8.83
106 | COc1c(CNC2CCN(c3ncccn3)CC2)c(C)nn1C | -8.59
107 | Cn1cc(C2CCCN2C(=O)c2ccc(OCC3CC3)nc2)cn1 (stereo not drawn) | -4.15
108 | Cn1ccnc1CN1CCCN(C(=O)c2ccc3ccccc3c2)CC1 | 1.95
109 | CN(C)c1cc(C(=O)N2CCCN(Cc3nccn3C)CC2)ccn1 | 14.3
110 | Cc1cccc(NS(=O)(=O)c2cc3c(c(C(=O)O)c2)OCCO3)c1 | -7.67
111 | CC(C)Oc1ccc(C(=O)N2CCCC2c2cnn(C)c2)cn1 (stereo not drawn) | -3
112 | CC(C)c1ncc2c(n1)CN(CC(=O)Nc1ccncc1)CC2 | -7.98
113 | COc1cc(CNCc2ccco2)ccc1OCCO | -5.33
